In patent US20090176714A1, “METHOD OF REDUCING THE EFFECTS OF ABeta AND COMPOSITIONS THEREFORE” (priority 2004, published 2009):

Key:
[1] = tested on: hippocampal slices; assay: TUNEL and Nissl staining of hippocampal slices; assay type: cell-based, mouse; conditions: 25 μM or 50 μM Aβ
Procedure: Hippocampal slice cryosections from 3 animals per treatment were stained with terminal deoxynucleotidyl transferase-mediated, dUTP nick end labeling (TUNEL). Cells with DNA fragmentation were determined by the terminal deoxynucleotidyl transferase incorporation of fluorescein isothiocyanate (FITC)-12-dUTP into DNA (In Situ Cell Death Detection kit, Roche Biochem, Indianapolis, Ind.). Other sections were stained with cresyl violet acetate, and the neurons with healthy nuclei as well as the neurons with condensed and clumped chromatin were counted within the neuronal fields.
β-amyloid1-42 and reverse Aβ (Aβ42-1) were obtained from BACHEM (Torrance, Calif.). These polypeptides were dissolved in 0.1% NH3OH at 222 μM. For treatments, Aβ was aggregated at 50 μM in Neurobasal media with B-27 supplement and 1 mM glutamine at 37° C. for 24 hours. Then, the slice culture media was removed, and the slices were treated with 1 mL of 25 μM or 50 μM Aβ, reverse Aβ, or vehicle for 24 hours. Human TTR (Calbiochem) or IGF-2 (Peprotech, Rocky Hill, N.J.) was added to slices together with the Aβ treatment at final concentrations of 3 μM (TTR) or 500 nM (IGF-2). sAPPα was prepared as described previously (Mattson et al., Neuron, 10:243-254 (1993)).
Unless otherwise stated, all sAPPα treatments were performed at 1 nM 48 hours prior to the addition of Aβ. […]

[2] = tested on: tau; assay: Tau phosphorylation in human cortical slices (AT8, phospho-tau(Thr231), electron microscopy); assay type: cell-based
Procedure: β-amyloid1-42 and reverse Aβ (Aβ42-1) were obtained from BACHEM (Torrance, Calif.). These peptides were dissolved in 0.1% NH3OH at 222 μM. For treatments, Aβ or reverse Aβ was aggregated at 50 μM in Neurobasal media with B-27 supplement and 0.5 mM glutamine at 37° C. for 24 hours. […] Human TTR (Calbiochem) was added to slices together with the Aβ treatment at final concentrations of 0.03, 0.3, and 3 μM TTR. sAPPα was obtained from Sigma (St. Louis, Mo.). Unless otherwise stated, all sAPPα treatments were performed at 1 nM 48 hours prior to the addition of Aβ. The 10 amino acid fragment of the carboxyl-terminal region of sAPPα (592-601 of APP695; SEVKMDAEFR was added according to the same protocol for sAPPα. Because a variable amount of tissue was obtained from each patient, not all treatments were performed on all patients.
Slices were fixed in 4% PFA for 20 minutes, incubated in 30% sucrose in phosphate buffered saline overnight, and frozen in OCT embedding medium. Frozen sections with a width of 10 μm were taken through each slice. Phosphorylated tau was detected with the monoclonal AT8 antibody (1:200; Research Diagnostics, Flanders, N.J.) and anti-phospho-tau(Thr231) (1:500; Calbiochem, San Diego, Calif.). As a control, pre-immune rabbit or mouse IgG (Vector Laboratories, Burlingame, Calif.) was used in place of the primary antibody. A biotinylated anti-rabbit IgG or anti-mouse IgG was used as the secondary antibody. The Vectastain Elite ABC kit (Vector) and tyramide conjugated to either Alexa Fluor 488 or 568 (Molecular Probes, Eugene, Oreg.) were used to visualize the antibody staining. Anti-NeuN (1:250; Chemicon International, Temecula, Calif.) together with an anti-mouse IgG secondary antibody conjugated to Alexa Fluor 647 was used to detect the neuronal marker NeuN. Sections were imaged using either the Bio-Rad Laser Scanning Confocal system or epifluorescence (Zeiss, Thornwood, N.Y.).

[3] = tested on: human cortical slices; assay: TUNEL/NeuN staining of human cortical slices; assay type: cell-based
Procedure: β-amyloid1-42 and reverse Aβ (Aβ42-1) were obtained from BACHEM (Torrance, Calif.). These peptides were dissolved in 0.1% NH3OH at 222 μM. For treatments, Aβ or reverse Aβ was aggregated at 50 μM in Neurobasal media with B-27 supplement and 0.5 mM glutamine at 37° C. for 24 hours. Then, the slice culture media was removed, and the slices were treated with 1 mL of 25 μM or 50 μM Aβ, reverse Aβ, or vehicle for 24 hour. Human TTR (Calbiochem) was added to slices together with the Aβ treatment at final concentrations of 0.03, 0.3, and 3 μM TTR. sAPPα was obtained from Sigma (St. Louis, Mo.). Unless otherwise stated, all sAPPα treatments were performed at 1 nM 48 hours prior to the addition of Aβ. The 10 amino acid fragment of the carboxyl-terminal region of sAPPα (592-601 of APP695; SEVKMDAEFR was added according to the same protocol for sAPPα. Because a variable amount of tissue was obtained from each patient, not all treatments were performed on all patients.
Cortical slice cryosections were stained with terminal deoxynucleotidyl transferase-mediated, dUTP nick end labeling (TUNEL) and with an anti-NeuN antibody. Cells with DNA fragmentation were determined by the terminal deoxynucleotidyl transferase incorporation of fluorescein isothiocyanate (FITC)-12-dUTP into DNA (In Situ Cell Death Detection kit, Roche Biochem, Indianapolis, Ind.). At least 3 random images per slice were generated by confocal analysis at 600× magnification. The number of TUNEL positive, NeuN positive, and both TUNEL and NeuN positive cells were then quantified.

[4] = Aβ treatment, 1 subject, FIG. 6B

With β-amyloid1-42 [Aβ] the “DNA strand breaks as indicated by TUNEL” value [1] was “resulted in DNA strand breaks”, the “Percent of neurons with chromatin condensation” value ([1]; FIG. 1) was “significant increase” and the AT8 positive cells ([2]; 50 μM Aβ) was “several AT8 positive cells”. For the same substance, the “Somatic phospho-tau(Thr231) in NeuN positive neurons” value ([2]; 50 μM Aβ) was “several NeuN positive neurons with high levels of somatic phospho-tau(Thr231)”, the “Tangle-like structures, electron microscopy” value ([2]; 50 μM Aβ for 1 week) was “small number of neurons with tangle-like structures” and the “DNA strand breaks as indicated by TUNEL” value ([3]; 50 μM Aβ) was “resulted in DNA strand breaks”. For the same substance, the “Percent of neurons that were TUNEL positive (% TUNEL/NeuN)” value [3, 4] was “increased” and the “Percent of total TUNEL positive cells (% TUNEL)” value [3, 4] was “increased”.
